Values quoted from earlier work as cited in patent US7081474B2, “Drugs to improve synaptic transmission” (priority 1994, dated 2006).
Like-named read-outs stand apart in the source and are kept apart here. No end group written: not given here.

Columns and labels:
[1] = tested on: slices of rat hippocampus; conditions: cited from earlier work
[2] = tested on: experimental animals; conditions: cited from earlier work
[3] = tested on: LTP in hippocampus (CA1 field, dentate gyrus); conditions: cited from earlier work
[4] = tested on: rats; conditions: infused into lateral ventricles; cited from earlier work

For `N[C@@]1(C(=O)O)CC[C@@H](C(=O)O)C1` [1S,3R-ACPD, aminocyclopentane-1S,3R-decarboxylate], the “effect on synaptic responses” value ([1]; brief application in vitro) is listed as “long lasting potentiation” and the deleterious effects ([2]; administered directly into the brain) is listed as “seizures and convulsions”.

For `NC(CCCP(=O)(O)O)C(=O)O` (stereo not shown) [APV, 2-amino-5-phosphonopentanoate], the “effect on LTP induction” value ([3]; CA1 field and dentate gyrus) is listed as “prevent LTP from taking place”, the “effect on LTP already established” value [3] is listed as “no effect” and the “learning of the task” value [4] is listed as “prevented from learning the task”.

For `O=C(O)CN(CCN(CC(=O)O)CC(=O)O)CC(=O)O` [EDTA], the “induction of LTP” value ([3]; intracellular injection) is listed as “blocked”.

For `CC(=O)N[C@@H](CC(C)C)C(=O)N[C@@H](CC(C)C)C(=O)N[C@H](C=O)CCCNC(=N)N` [leupeptin], the “LTP on electrical stimulation of the hippocampus” value ([3]; infusion into lateral ventricles of rats) is listed as “no longer produces LTP”.

For `CC[N+](CC)(CC)CC` [tetraethylammonium], the “effect on synaptic responses” value [1] is listed as “long lasting potentiation”.

For “mast-cell-degranulating peptide: K+ channel blocker (IKCNCKRHVIKPHICRKICGKN; ends and bridges not checked; cysteine pairing not given here; UniProt P01499 28-49, looked up)”, the “effect on synaptic responses” value [1] is listed as “long lasting potentiation” and the deleterious effects ([2]; in vivo) is listed as “seizures and convulsions”.
